Target: T1, CFTR (Homo sapiens, UniProt P13569, DEL508-508)
T1 construct: Primary CF airway epithelial cells were obtained from the UNC Cystic Fibrosis Tissue Procurement and Cell Culture Core; host or cells: primary CF airway epithelial cells, differentiated at the air-liquid interface
Test: Equivalent current assay in primary CF airway epithelial cells (NAUC, combination with 1st site corrector FDL169 or VX-809)
Format: cell-based
Conditions: 37° C., 24 h; for Nauc @ 10 μM: test compound 10 μM in combination with 1st site corrector VX-809 (3 μM)

T1 sequence (P13569 with tags, fused parts or gaps DEL508-508): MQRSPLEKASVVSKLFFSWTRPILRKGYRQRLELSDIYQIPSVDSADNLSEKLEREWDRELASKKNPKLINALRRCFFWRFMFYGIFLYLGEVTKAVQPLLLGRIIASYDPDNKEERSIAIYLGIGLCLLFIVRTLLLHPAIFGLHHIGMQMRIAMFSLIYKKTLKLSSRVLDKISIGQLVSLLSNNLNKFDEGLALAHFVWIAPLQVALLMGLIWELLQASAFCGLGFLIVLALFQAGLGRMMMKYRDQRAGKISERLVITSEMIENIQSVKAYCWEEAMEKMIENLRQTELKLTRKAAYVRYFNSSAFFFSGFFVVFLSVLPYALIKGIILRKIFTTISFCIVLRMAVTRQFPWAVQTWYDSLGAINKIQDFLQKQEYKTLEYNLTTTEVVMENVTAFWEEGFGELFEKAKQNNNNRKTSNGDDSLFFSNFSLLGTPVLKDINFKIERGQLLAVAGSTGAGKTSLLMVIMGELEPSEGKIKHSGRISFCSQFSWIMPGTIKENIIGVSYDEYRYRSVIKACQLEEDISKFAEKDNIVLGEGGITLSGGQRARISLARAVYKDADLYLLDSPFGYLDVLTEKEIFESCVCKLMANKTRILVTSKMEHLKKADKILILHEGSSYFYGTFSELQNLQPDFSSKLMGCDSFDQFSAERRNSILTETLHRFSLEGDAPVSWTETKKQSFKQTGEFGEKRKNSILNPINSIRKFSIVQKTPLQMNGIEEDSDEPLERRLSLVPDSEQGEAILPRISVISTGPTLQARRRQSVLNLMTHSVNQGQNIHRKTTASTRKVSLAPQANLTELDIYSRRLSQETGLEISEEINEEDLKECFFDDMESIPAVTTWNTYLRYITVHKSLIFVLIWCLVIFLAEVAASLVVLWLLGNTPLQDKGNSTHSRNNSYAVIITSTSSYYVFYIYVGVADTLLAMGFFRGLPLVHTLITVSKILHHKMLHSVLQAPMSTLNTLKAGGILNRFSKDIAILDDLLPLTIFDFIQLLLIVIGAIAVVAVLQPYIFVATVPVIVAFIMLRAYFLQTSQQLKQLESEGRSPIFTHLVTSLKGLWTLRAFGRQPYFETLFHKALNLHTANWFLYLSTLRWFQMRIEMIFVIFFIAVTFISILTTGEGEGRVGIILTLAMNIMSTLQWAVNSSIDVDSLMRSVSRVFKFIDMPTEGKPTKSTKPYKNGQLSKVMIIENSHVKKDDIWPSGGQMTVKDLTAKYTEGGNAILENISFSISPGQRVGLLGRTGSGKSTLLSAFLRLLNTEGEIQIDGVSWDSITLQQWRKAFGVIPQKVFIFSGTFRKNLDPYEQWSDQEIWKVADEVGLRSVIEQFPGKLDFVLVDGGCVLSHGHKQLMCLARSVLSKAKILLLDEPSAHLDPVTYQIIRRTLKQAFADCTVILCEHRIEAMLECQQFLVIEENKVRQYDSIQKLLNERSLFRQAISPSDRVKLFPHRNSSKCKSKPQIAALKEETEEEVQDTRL

SMILES | Nauc @ 10 μM | Nauc @ 1 μM (test compound 1 μM in combination with 1st site corrector VX-809 (3 μM)) | Nauc @ 3 μM (test compound 3 μM in combination with 1st site corrector VX-809 (3 μM))
O=C(Nc1cc(Cl)cc(Cl)c1)C1C(C(F)(F)c2ccccn2)NC2(C(=O)Nc3c(Cl)cc(Cl)cc32)C1C(=O)O (stereo not shown) [Example 72.a] | + (NAUC “+” refers to an observed NAUC <140% of positive control) |  | 
CONC(=O)[C@H]1[C@@H](C(=O)Nc2cc(Cl)cc(Cl)c2)[C@H]2C[C@](C)(O)CN2[C@]12C(=O)Nc1c(Cl)cc(Cl)cc12 [Example 246, (1′R,2′S,6′S,7a′R)-5,7-dichloro-N1′-(3,5-dichlorophenyl)-6′-hydroxy-N2′-methoxy-6′-methyl-2-oxo-1′,2′,5′,6′,7′,7a′-hexahydrospiro[indoline-3,3′-pyrrolizine]-1′,2′-dicarboxamide] | +++ (NAUC “+++” refers to an observed NAUC>170% of positive control) | + (NAUC “+” refers to an observed NAUC <140% of positive control) | + (NAUC “+” refers to an observed NAUC <140% of positive control)

— US20230055237A1, “COMPOUNDS AND METHODS FOR THE TREATMENT OF CYSTIC FIBROSIS” (Flatley Discovery Lab, LLC, priority 2019, published 2023)
